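How tested: cells in 96-well plates exposed to compound for 48 hours at five concentrations. The concentration for 50% growth inhibition is given as GI50. Definition used: TGI = concentration required for complete inhibition of growth.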
Experiments:
Experiment in all cases: DTP human tumour cell line panel, 48 h
CCRF-CEM leukemia = system: CCRF-CEM leukemia
A498 renal = system: A498 renal
MALME-3M melanoma = system: MALME-3M melanoma
T-47D breast = system: T-47D breast
SK-MEL-2 melanoma = system: SK-MEL-2 melanoma
SW-620 colon = system: SW-620 colon
HCC-2998 colon = system: HCC-2998 colon
KM12 colon = system: KM12 colon
HS 578T breast = system: HS 578T breast
OVCAR-3 ovarian = system: OVCAR-3 ovarian
NCI/ADR-RES ovarian = system: NCI/ADR-RES ovarian
MCF7 breast = system: MCF7 breast
RXF 393 renal = system: RXF 393 renal
ACHN renal = system: ACHN renal
HL-60(TB) leukemia = system: HL-60(TB) leukemia
SK-MEL-28 melanoma = system: SK-MEL-28 melanoma
MOLT-4 leukemia = system: MOLT-4 leukemia
SF-539 CNS = system: SF-539 CNS
BT-549 breast = system: BT-549 breast
LOX IMVI melanoma = system: LOX IMVI melanoma
HCT-15 colon = system: HCT-15 colon
NCI-H23 lung = system: NCI-H23 lung
A549 NSCLC = system: A549 NSCLC
OVCAR-5 ovarian = system: OVCAR-5 ovarian
HT29 colon = system: HT29 colon
CAKI-1 renal = system: CAKI-1 renal
OVCAR-8 ovarian = system: OVCAR-8 ovarian
NCI-H460 lung = system: NCI-H460 lung
DU-145 prostate = system: DU-145 prostate
SN12C renal = system: SN12C renal
SNB-75 CNS = system: SNB-75 CNS
HOP-92 NSCLC = system: HOP-92 NSCLC
IGROV1 ovarian = system: IGROV1 ovarian
U251 CNS = system: U251 CNS
SK-MEL-5 melanoma = system: SK-MEL-5 melanoma
EKVX NSCLC = system: EKVX NSCLC
M14 melanoma = system: M14 melanoma
SNB-19 CNS = system: SNB-19 CNS
SF-268 CNS = system: SF-268 CNS
PC-3 prostate = system: PC-3 prostate
OVCAR-4 ovarian = system: OVCAR-4 ovarian
COLO 205 colon = system: COLO 205 colon
MDA-MB-435 = system: MDA-MB-435
NCI-H226 lung = system: NCI-H226 lung
RPMI-8226 leukemia = system: RPMI-8226 leukemia
HCT-116 colon = system: HCT-116 colon
SK-OV-3 ovarian = system: SK-OV-3 ovarian
HOP-62 NSCLC = system: HOP-62 NSCLC
MDA-MB-231 breast = system: MDA-MB-231 breast
NCI-H522 lung = system: NCI-H522 lung
UACC-257 melanoma = system: UACC-257 melanoma
TK-10 renal = system: TK-10 renal
SF-295 CNS = system: SF-295 CNS
K-562 leukemia = system: K-562 leukemia
UO-31 renal = system: UO-31 renal
786-0 renal = system: 786-0 renal

## COc1cc2c3c(n(CCN(C)C)c(=O)c2cc1OC)-c1cc2c(cc1C3=O)OCO2
CCRF-CEM leukemia
  GI50: 0.294 µM
  TGI: 1.61 µM
A498 renal
  GI50: 15 µM
  TGI: 87.1 µM
MALME-3M melanoma
  GI50: 6.17 µM
  TGI: > 52.6 µM
T-47D breast
  GI50: 27.1 µM
  TGI: > 100 µM
SK-MEL-2 melanoma
  GI50: > 96.1 µM
  TGI: > 100 µM
SW-620 colon
  GI50: 2.86 µM
  TGI: > 100 µM
HCC-2998 colon
  GI50: 3.5 µM
  TGI: > 100 µM
KM12 colon
  GI50: 15.2 µM
  TGI: > 60.2 µM
HS 578T breast
  GI50: > 84.9 µM
  TGI: > 100 µM
OVCAR-3 ovarian
  GI50: 8.31 µM
  TGI: 38.4 µM
NCI/ADR-RES ovarian
  GI50: 0.315 µM
  TGI: > 40 µM
MCF7 breast
  GI50: 0.297 µM
  TGI: > 33.8 µM
RXF 393 renal
  TGI: > 57.9 µM
ACHN renal
  TGI: > 100 µM
HL-60(TB) leukemia
  GI50: 1.02 µM
  TGI: > 35.8 µM
SK-MEL-28 melanoma
  GI50: > 28.4 µM
  TGI: > 100 µM
MOLT-4 leukemia
  GI50: < 0.0491 µM
SF-539 CNS
  TGI: 1.59 µM
BT-549 breast
  GI50: > 47.7 µM
  TGI: > 100 µM
LOX IMVI melanoma
  TGI: > 21.5 µM
HCT-15 colon
  GI50: 2.32 µM
  TGI: > 100 µM
NCI-H23 lung
  GI50: 0.137 µM
  TGI: > 100 µM
A549 NSCLC
  GI50: 0.799 µM
  TGI: > 100 µM
OVCAR-5 ovarian
  GI50: > 100 µM
  TGI: > 100 µM
HT29 colon
  TGI: > 73.4 µM
CAKI-1 renal
  GI50: 0.747 µM
  TGI: 44.3 µM
OVCAR-8 ovarian
  GI50: 1.4 µM
  TGI: > 100 µM
NCI-H460 lung
  GI50: 0.157 µM
  TGI: > 100 µM
DU-145 prostate
  GI50: 0.218 µM
  TGI: > 22.5 µM
SN12C renal
  GI50: 4.38 µM
  TGI: > 100 µM
SNB-75 CNS
  GI50: 8.22 µM
  TGI: > 100 µM
HOP-92 NSCLC
  GI50: 26.7 µM
  TGI: > 100 µM
IGROV1 ovarian
  GI50: 18.6 µM
  TGI: > 100 µM
U251 CNS
  GI50: 2.64 µM
  TGI: > 100 µM
SK-MEL-5 melanoma
  GI50: 1.21 µM
  TGI: 22.1 µM
EKVX NSCLC
  GI50: 37 µM
  TGI: > 100 µM
M14 melanoma
  TGI: > 100 µM
SNB-19 CNS
  GI50: > 20.7 µM
  TGI: > 100 µM
SF-268 CNS
  GI50: 0.677 µM
  TGI: > 100 µM
PC-3 prostate
  GI50: 31.4 µM
  TGI: > 100 µM
OVCAR-4 ovarian
  GI50: > 38.2 µM
  TGI: > 100 µM
COLO 205 colon
  TGI: > 100 µM
MDA-MB-435
  GI50: 6.08 µM
  TGI: > 77 µM
NCI-H226 lung
  GI50: 1.08 µM
  TGI: 57.9 µM
RPMI-8226 leukemia
  GI50: 0.0315 µM
  TGI: 19.2 µM
HCT-116 colon
  TGI: 19.3 µM
SK-OV-3 ovarian
  GI50: > 29 µM
  TGI: > 100 µM
HOP-62 NSCLC
  TGI: > 86.1 µM
MDA-MB-231 breast
  TGI: > 32.1 µM
NCI-H522 lung
  GI50: 2.51 µM
  TGI: > 100 µM
UACC-257 melanoma
  GI50: 12.6 µM
  TGI: > 100 µM
TK-10 renal
  GI50: 46.2 µM
  TGI: > 100 µM
SF-295 CNS
  GI50: 0.511 µM
  TGI: > 41.7 µM
K-562 leukemia
  GI50: 2.53 µM
  TGI: 97.4 µM
UO-31 renal
  GI50: 9.3 µM
  TGI: > 100 µM
786-0 renal
  TGI: > 100 µM
